Laboratory results: publication PMC11032351, “Epigenetic modulation through BET bromodomain inhibitors as a novel therapeutic strategy for progranulin-deficient frontotemporal dementia” (Scientific Reports, 2024)

Experiments:
[1] = tested on: PGRN protein levels; assay: PGRN quantification (Jess) in GRN R493X/+ NPCs; assay type: cell-based, human; settings: 24 h
Description: (§1) PGRN capillary gel electrophoresis experiments were performed using Jess (Bio-Techne) and data were processed and analyzed using Compass for Simple Western software (version 6.0). Runs were conducted using EZ Standard Pack 1 12–230 kDa (Bio-Techne PS-ST01EZ-8), 12–230 kDa pre-filled plates (PS-PP03), 12–230 kDa separation module (SMW004), anti-rabbit HRP detection (DM-001), RePlex (RP-001), and total protein detection modules (DM-TP01, biotin labeling reagent 042-973) according to the manufacturer’s instructions, and with anti-PGRN primary (Abcam ab208777) diluted 1:50 in milk-free antibody dilution buffer (043–524). The following run settings were used for each experiment: separation time: 25 min, separation voltage: 375 V, RePlex purge time: 30 min, biotin labeling time: 30 min, antibody diluent time: 5 min, primary antibody time: 30 min, secondary antibody time: 30 min, total protein HRP time: 30 min. All intensity quantifications are normalized to the total protein assay quantification unless otherwise indicated.
(§2) For GRN^R493^X/+ NPCs, cells were grown to confluency in 6-well plates according to the above NPC culturing procedure. To each well was directly added 2 µL of 100 µM panobinostat, […], or DMSO only to produce final in-well concentrations of 100 nM or 1 µM, respectively (0.1% DMSO final concentration). […]

[2] = tested on: PGRN protein levels; assay: PGRN quantification (Jess) in GRN R493X/+ 14-day differentiated neurons; assay type: cell-based, human; settings: GRN R493X/+ 14-day growth factor differentiated neurons, 24 h
Description: as §1, §2

[3] = tested on: lysosomal genes; assay: RNA sequencing of human dermal fibroblasts, lysosomal genes; assay type: cell-based; settings: 24 h
Description: Non-immortalized HDF cells (UCSF Memory and Aging Center, FTD25(X)) were cultured in high glucose DMEM with 10% FBS with supplemented L-glutamine and Pen/Strep, and grown in 100 mm plates for treatment. Cells were treated with DMSO or 1 μM mivebresib (1% DMSO) for 24 h. Trizol (Invitrogen) was used to isolate total cellular RNA, according to the manufacturer's protocol. RNA concentrations were assessed using a NanoDrop spectrophotometer (Thermo Scientific) and samples were diluted to 100 ng/10 μL in nuclease-free water (Ambion). 5 μg of each RNA sample was submitted for processing. Gene set enrichment analysis for lysosomal genes (list from Sardiello et al. 2009, Table S1) was performed using GSEA Desktop v3.0, with the following input parameters: number of permutations: 1000, scoring scheme: weighted, normalization mode: […], ranking metric: Signal2Noise, sorting: real[42]-[44]. […] Input queried against “Literature” library.

CCS(=O)(=O)Nc1ccc(Oc2ccc(F)cc2F)c(-c2cn(C)c(=O)c3[nH]ccc23)c1 [mivebresib]
PGRN protein levels [1]: significantly increased PGRN protein levels | PGRN protein levels [2]: significantly increased PGRN protein levels | lysosomal genes significantly upregulated ([3]; 1 µM, pre-defined list of lysosomal genes): 68/89 | Log2(fold-change) ABCA2 ([3]; gene ABCA2, 1 µM, vs DMSO): 0.969 | Log2(fold-change) ABCB9 ([3]; gene ABCB9, 1 µM, vs DMSO): 0.753 | Log2(fold-change) ACP2 ([3]; gene ACP2, 1 µM, vs DMSO): 0.071 | Log2(fold-change) ACP5 ([3]; gene ACP5, 1 µM, vs DMSO): 1.631 | Log2(fold-change) AGA ([3]; gene AGA, 1 µM, vs DMSO): 1.111 | Log2(fold-change) ARSA ([3]; gene ARSA, 1 µM, vs DMSO): 0.958 | Log2(fold-change) ARSB ([3]; gene ARSB, 1 µM, vs DMSO): 0.697 | Log2(fold-change) ARSG ([3]; gene ARSG, 1 µM, vs DMSO): 0.426 | Log2(fold-change) ASAH1 ([3]; gene ASAH1, 1 µM, vs DMSO): 1.724 | Log2(fold-change) CD63 ([3]; gene CD63, 1 µM, vs DMSO): 0.465 | Log2(fold-change) CD68 ([3]; gene CD68, 1 µM, vs DMSO): 0.237 | Log2(fold-change) CLCN7 ([3]; gene CLCN7, 1 µM, vs DMSO): 1.349 | Log2(fold-change) CLN3 ([3]; gene CLN3, 1 µM, vs DMSO): -0.112 | Log2(fold-change) CLN5 ([3]; gene CLN5, 1 µM, vs DMSO): 0.974 | Log2(fold-change) CPVL ([3]; gene CPVL, 1 µM, vs DMSO): 4.550 | Log2(fold-change) CREG1 ([3]; gene CREG1, 1 µM, vs DMSO): 1.959 | Log2(fold-change) CTBS ([3]; gene CTBS, 1 µM, vs DMSO): -0.006 | Log2(fold-change) CTNS ([3]; gene CTNS, 1 µM, vs DMSO): 1.077 | Log2(fold-change) CTSA ([3]; gene CTSA, 1 µM, vs DMSO): 1.344 | Log2(fold-change) CTSB ([3]; gene CTSB, 1 µM, vs DMSO): 0.947 | Log2(fold-change) CTSC ([3]; gene CTSC, 1 µM, vs DMSO): 0.179 | Log2(fold-change) CTSD ([3]; gene CTSD, 1 µM, vs DMSO): 1.383 | Log2(fold-change) CTSF ([3]; gene CTSF, 1 µM, vs DMSO): 1.580 | Log2(fold-change) CTSH ([3]; gene CTSH, 1 µM, vs DMSO): 2.652 | Log2(fold-change) CTSK ([3]; gene CTSK, 1 µM, vs DMSO): 2.602 | Log2(fold-change) CTSS ([3]; gene CTSS, 1 µM, vs DMSO): 1.574 | Log2(fold-change) CTSZ ([3]; gene CTSZ, 1 µM, vs DMSO): 0.095 | Log2(fold-change) DNASE2 ([3]; gene DNASE2, 1 µM, vs DMSO): 0.759 | Log2(fold-change) ENTPD4 ([3]; gene ENTPD4, 1 µM, vs DMSO): -0.066 | Log2(fold-change) EPDR1 ([3]; gene EPDR1, 1 µM, vs DMSO): 0.350 | Log2(fold-change) FUCA1 ([3]; gene FUCA1, 1 µM, vs DMSO): 2.294 | Log2(fold-change) GAA ([3]; gene GAA, 1 µM, vs DMSO): 1.285 | Log2(fold-change) GALC ([3]; gene GALC, 1 µM, vs DMSO): 0.272 | Log2(fold-change) GALNS ([3]; gene GALNS, 1 µM, vs DMSO): 0.664 | Log2(fold-change) GBA ([3]; gene GBA, 1 µM, vs DMSO): 0.975 | Log2(fold-change) GGH ([3]; gene GGH, 1 µM, vs DMSO): -0.787 | Log2(fold-change) GLA ([3]; gene GLA, 1 µM, vs DMSO): 0.381 | Log2(fold-change) GLB1 ([3]; gene GLB1, 1 µM, vs DMSO): 0.633 | Log2(fold-change) GM2A ([3]; gene GM2A, 1 µM, vs DMSO): 0.722 | Log2(fold-change) GNS ([3]; gene GNS, 1 µM, vs DMSO): 1.166 | Log2(fold-change) GUSB ([3]; gene GUSB, 1 µM, vs DMSO): -0.134 | Log2(fold-change) HEXA ([3]; gene HEXA, 1 µM, vs DMSO): 1.135 | Log2(fold-change) HEXB ([3]; gene HEXB, 1 µM, vs DMSO): 1.117 | Log2(fold-change) HGSNAT ([3]; gene HGSNAT, 1 µM, vs DMSO): 0.896 | Log2(fold-change) HPSE ([3]; gene HPSE, 1 µM, vs DMSO): 1.426 | Log2(fold-change) HYAL1 ([3]; gene HYAL1, 1 µM, vs DMSO): 0.217 | Log2(fold-change) HYAL2 ([3]; gene HYAL2, 1 µM, vs DMSO): -0.168 | Log2(fold-change) IDS ([3]; gene IDS, 1 µM, vs DMSO): 1.156 | Log2(fold-change) IDUA ([3]; gene IDUA, 1 µM, vs DMSO): 1.057 | Log2(fold-change) IFI30 ([3]; gene IFI30, 1 µM, vs DMSO): 1.145 | Log2(fold-change) LAMP1 ([3]; gene LAMP1, 1 µM, vs DMSO): 1.227 | Log2(fold-change) LAMP2 ([3]; gene LAMP2, 1 µM, vs DMSO): 1.082 | Log2(fold-change) LAPTM4A ([3]; gene LAPTM4A, 1 µM, vs DMSO): 0.460 | Log2(fold-change) LAPTM5 ([3]; gene LAPTM5, 1 µM, vs DMSO): 0.199 | Log2(fold-change) LGMN ([3]; gene LGMN, 1 µM, vs DMSO): 1.455 | Log2(fold-change) LIPA ([3]; gene LIPA, 1 µM, vs DMSO): 0.574 | Log2(fold-change) LITAF ([3]; gene LITAF, 1 µM, vs DMSO): 1.022 | Log2(fold-change) LMBRD1 ([3]; gene LMBRD1, 1 µM, vs DMSO): 0.119 | Log2(fold-change) MAN2B1 ([3]; gene MAN2B1, 1 µM, vs DMSO): 0.586 | Log2(fold-change) MAN2B2 ([3]; gene MAN2B2, 1 µM, vs DMSO): 0.870 | Log2(fold-change) MANBA ([3]; gene MANBA, 1 µM, vs DMSO): 1.687 | Log2(fold-change) MCOLN1 ([3]; gene MCOLN1, 1 µM, vs DMSO): 2.564 | Log2(fold-change) MFSD8 ([3]; gene MFSD8, 1 µM, vs DMSO): -0.317 | Log2(fold-change) MPO ([3]; gene MPO, 1 µM, vs DMSO): 1.298 | Log2(fold-change) NAAA ([3]; gene NAAA, 1 µM, vs DMSO): 0.334 | Log2(fold-change) NAGA ([3]; gene NAGA, 1 µM, vs DMSO): 0.034 | Log2(fold-change) NAGLU ([3]; gene NAGLU, 1 µM, vs DMSO): 0.982 | Log2(fold-change) NCSTN ([3]; gene NCSTN, 1 µM, vs DMSO): 0.166 | Log2(fold-change) NEU1 ([3]; gene NEU1, 1 µM, vs DMSO): 2.366 | Log2(fold-change) NEU4 ([3]; gene NEU4, 1 µM, vs DMSO): 1.289 | Log2(fold-change) NPC1 ([3]; gene NPC1, 1 µM, vs DMSO): 1.530 | Log2(fold-change) NPC2 ([3]; gene NPC2, 1 µM, vs DMSO): 1.822 | Log2(fold-change) OSTM1 ([3]; gene OSTM1, 1 µM, vs DMSO): 1.559 | Log2(fold-change) PCYOX1 ([3]; gene PCYOX1, 1 µM, vs DMSO): 0.963 | Log2(fold-change) PPT1 ([3]; gene PPT1, 1 µM, vs DMSO): -0.819 | Log2(fold-change) PPT2 ([3]; gene PPT2, 1 µM, vs DMSO): -0.987 | Log2(fold-change) PSAP ([3]; gene PSAP, 1 µM, vs DMSO): 1.511 | Log2(fold-change) RNASET2 ([3]; gene RNASET2, 1 µM, vs DMSO): 1.008 | Log2(fold-change) SCARB2 ([3]; gene SCARB2, 1 µM, vs DMSO): 0.201 | Log2(fold-change) SCPEP1 ([3]; gene SCPEP1, 1 µM, vs DMSO): 1.441 | Log2(fold-change) SGSH ([3]; gene SGSH, 1 µM, vs DMSO): 0.983 | Log2(fold-change) SIAE ([3]; gene SIAE, 1 µM, vs DMSO): 0.365 | Log2(fold-change) SLC17A5 ([3]; gene SLC17A5, 1 µM, vs DMSO): 1.220 | Log2(fold-change) SLC36A1 ([3]; gene SLC36A1, 1 µM, vs DMSO): 0.968 | Log2(fold-change) SMPD1 ([3]; gene SMPD1, 1 µM, vs DMSO): 0.723 | Log2(fold-change) TMEM74 ([3]; gene TMEM74, 1 µM, vs DMSO): 2.173 | Log2(fold-change) TMEM92 ([3]; gene TMEM92, 1 µM, vs DMSO): -1.444 | Log2(fold-change) TPP1 ([3]; gene TPP1, 1 µM, vs DMSO): 1.361
